Structures are written as SMILES. Calls of active or inactive are those of the source. How the calls were made is not given here.

This series relates to rodent lifetime carcinogenesis bioassay, tumor incidence TD50. The series is described as follows: chronic cancer bioassays in animals – CPDB, compiled studies (AID 1745844).

For `ClC(Br)Br`, the TD50 – broadly, the 50% point of the dose-response relation for the toxic effect studied – runs as follows: (mouse, strain B6C3F1, females, by gavage, site: liver, lesion: hepatocellular adenoma + hepatocellular carcinoma + neoplastic nodule, dosed 105 weeks, study length 106 weeks) 139 mg/kg/day; (mouse, strain B6C3F1, females, by gavage, site: liver, lesion: hepatocellular adenoma + hepatocellular carcinoma, dosed 105 weeks, study length 106 weeks) 139 mg/kg/day; (mouse, strain B6C3F1, females, by gavage, site: liver, lesion: hepatocellular adenoma, dosed 105 weeks, study length 106 weeks) 211 mg/kg/day; (mouse, strain B6C3F1, males, by gavage, site: any site (literature study), lesion: several types, types named in the paper, dosed 105 weeks, study length 106 weeks) 11.3 mg/kg/day; (mouse, strain B6C3F1, males, by gavage, site: liver, lesion: hepatocellular adenoma + hepatocellular carcinoma + neoplastic nodule, dosed 105 weeks, study length 106 weeks) 20.7 mg/kg/day; (mouse, strain B6C3F1, males, by gavage, site: liver, lesion: hepatocellular adenoma + hepatocellular carcinoma, dosed 105 weeks, study length 106 weeks) 20.7 mg/kg/day. The TD50 (mouse, strain B6C3F1, males, by gavage, site: liver, lesion: hepatocellular carcinoma, dosed 105 weeks, study length 106 weeks) was determined as 33.5 mg/kg/day; the TD50 (mouse, strain B6C3F1, males, by gavage, site: lung, lesion: alveolar/bronchiolar adenoma + alveolar/bronchiolar carcinoma, dosed 105 weeks, study length 106 weeks) came out at 115 mg/kg/day; the TD50 (rat, strain Fischer 344, females, by gavage, site: liver, lesion: hepatocellular adenoma + hepatocellular carcinoma + neoplastic nodule, dosed 104 weeks, study length 105 weeks) amounted to 591 mg/kg/day; the TD50 (rat, strain Fischer 344, males, by gavage, site: liver, lesion: hepatocellular adenoma + hepatocellular carcinoma + neoplastic nodule, dosed 104 weeks, study length 105 weeks) was found to be 150 mg/kg/day. In addition, the carcinogen call runs as follows: (rat, strain Fischer 344, females, by gavage, site: any site (literature study), lesion: several types, types named in the paper, dosed 104 weeks, study length 105 weeks) “negative (inactive)”; (rat, strain Fischer 344, males, by gavage, site: any site (literature study), lesion: several types, types named in the paper, dosed 104 weeks, study length 105 weeks) “negative (inactive)”.

Turning to `CC1CN(N=O)CC(C)N1C(=O)c1ccccc1` (stereo not drawn), under “rat, strain Fischer 344, females, in drinking water, site: any site (literature study), lesion: several types, types named in the paper, dosed 50 weeks, study length 125 weeks”, the carcinogen call is “positive”. The TD50 is, setting by setting: (rat, strain Fischer 344, females, in drinking water, site: forestomach, lesion: basal-cell carcinoma, dosed 50 weeks, study length 125 weeks) 26.4 mg/kg/day; (rat, strain Fischer 344, females, in drinking water, site: forestomach, lesion: papilloma, dosed 50 weeks, study length 125 weeks) 9.66 mg/kg/day; (rat, strain Fischer 344, females, in drinking water, site: liver, lesion: one or several types, types not named, dosed 50 weeks, study length 125 weeks) 9.1 mg/kg/day.

Consider `COc1cc(-c2ccc(N=C=O)c(OC)c2)ccc1N=C=O`, for which the TD50 by setting is: (mouse, strain B6C3F1, females, in feed, site: any site (literature study), lesion: several types, types named in the paper, dosed 78 weeks, study length 103 weeks) 32800 mg/kg/day (inactive); (mouse, strain B6C3F1, males, in feed, site: any site (literature study), lesion: several types, types named in the paper, dosed 78 weeks, study length 103 weeks) 24000 mg/kg/day (inactive); (mouse, strain B6C3F1, males, in feed, site: liver, lesion: hepatocellular adenoma + hepatocellular carcinoma + neoplastic nodule, dosed 78 weeks, study length 103 weeks) 12100 mg/kg/day; (mouse, strain B6C3F1, males, in feed, site: lung, lesion: alveolar/bronchiolar adenoma + alveolar/bronchiolar carcinoma, dosed 78 weeks, study length 103 weeks) 87900 mg/kg/day; (rat, strain Fischer 344, females, oral dosing, site: all sites + uterus, lesion: leukemia + lymphoma + endometrial stromal polyp, dosed 78 weeks, study length 104 weeks) 1450 mg/kg/day; (rat, strain Fischer 344, females, oral dosing, site: all sites, lesion: leukemia + lymphoma, dosed 78 weeks, study length 104 weeks) 2280 mg/kg/day. For the same molecule, the TD50 was 773 mg/kg/day (rat, strain Fischer 344, females, oral dosing, site: any site (literature study), lesion: several types, types named in the paper, dosed 78 weeks, study length 104 weeks); 2590 mg/kg/day (rat, strain Fischer 344, females, oral dosing, site: ear + Zymbal's gland, lesion: sebaceous adenocarcinoma + squamous-cell carcinoma + trichoepithelioma, dosed 78 weeks, study length 104 weeks); 17100 mg/kg/day (rat, strain Fischer 344, females, oral dosing, site: liver, lesion: hepatocellular adenoma + hepatocellular carcinoma + neoplastic nodule, dosed 78 weeks, study length 104 weeks); 2740 mg/kg/day (rat, strain Fischer 344, females, oral dosing, site: uterus, lesion: endometrial stromal polyp, dosed 78 weeks, study length 104 weeks); 742 mg/kg/day (rat, strain Fischer 344, males, oral dosing, site: all sites + skin of foot and toe + skin of back + skin of flank + skin, lesion: leukemia + lymphoma + keratoacanthoma + basal-cell tumor + papilloma, NOS + sebaceous adenoma + sebaceous adenoma and adenocarcinoma, dosed 78 weeks, study length 104 weeks); 1270 mg/kg/day (rat, strain Fischer 344, males, oral dosing, site: all sites, lesion: leukemia + lymphoma, dosed 78 weeks, study length 104 weeks). Besides, the TD50 was 809 mg/kg/day (rat, strain Fischer 344, males, oral dosing, site: any site (literature study), lesion: several types, types named in the paper, dosed 78 weeks, study length 104 weeks); 7010 mg/kg/day (rat, strain Fischer 344, males, oral dosing, site: ear + Zymbal's gland, lesion: squamous-cell carcinoma, dosed 78 weeks, study length 104 weeks); 6600 mg/kg/day (rat, strain Fischer 344, males, oral dosing, site: liver, lesion: hepatocellular adenoma + hepatocellular carcinoma + neoplastic nodule, dosed 78 weeks, study length 104 weeks); 1770 mg/kg/day (rat, strain Fischer 344, males, oral dosing, site: skin of foot and toe + skin of back + skin of flank + skin, lesion: keratoacanthoma + basal-cell tumor + papilloma, NOS + sebaceous adenoma + trichoepithelioma, dosed 78 weeks, study length 104 weeks); 1330 mg/kg/day (rat, strain Fischer 344, males, oral dosing, site: skin of foot and toe + skin of back + skin of flank + skin, lesion: keratoacanthoma + basal-cell tumor + papilloma, NOS + sebaceous adenoma and adenocarcinoma + squamous-cell carcinoma + trichoepith, dosed 78 weeks, study length 104 weeks).

Consider `CC1CO1` (stereo not drawn), for which the TD50 by setting is: (mouse, strain B6C3F1, females, inhaled, site: all sites, lesion: hemangioma + hemangiosarcoma, dosed 103 weeks, study length 104 weeks) 863 mg/kg/day; (mouse, strain B6C3F1, females, inhaled, site: all sites, lesion: hemangioma, dosed 103 weeks, study length 104 weeks) 1810 mg/kg/day; (mouse, strain B6C3F1, females, inhaled, site: all sites, lesion: hemangiosarcoma, dosed 103 weeks, study length 104 weeks) 1610 mg/kg/day; (mouse, strain B6C3F1, females, inhaled, site: any site (literature study), lesion: several types, types named in the paper, dosed 103 weeks, study length 104 weeks) 226 mg/kg/day; (mouse, strain B6C3F1, females, inhaled, site: liver, lesion: hepatocellular adenoma + hepatocellular carcinoma + neoplastic nodule, dosed 103 weeks, study length 104 weeks) 979 mg/kg/day; (mouse, strain B6C3F1, females, inhaled, site: lung, lesion: alveolar/bronchiolar adenoma + alveolar/bronchiolar carcinoma, dosed 103 weeks, study length 104 weeks) 588 mg/kg/day. For the same molecule, the TD50 is 588 mg/kg/day (mouse, strain B6C3F1, females, inhaled, site: lung, lesion: alveolar/bronchiolar adenoma, dosed 103 weeks, study length 104 weeks); 1260 mg/kg/day (mouse, strain B6C3F1, females, inhaled, site: mammary gland, lesion: adenocarcinoma + adenosquamous carcinoma, dosed 103 weeks, study length 104 weeks); 2770 mg/kg/day (mouse, strain B6C3F1, females, inhaled, site: mammary gland, lesion: adenosquamous carcinoma, dosed 103 weeks, study length 104 weeks); 1210 mg/kg/day (mouse, strain B6C3F1, females, inhaled, site: nasal cavity, lesion: hemangioma + hemangiosarcoma, dosed 103 weeks, study length 104 weeks); 2020 mg/kg/day (mouse, strain B6C3F1, females, inhaled, site: nasal cavity, lesion: hemangioma, dosed 103 weeks, study length 104 weeks); 753 mg/kg/day (mouse, strain B6C3F1, males, inhaled, site: all sites, lesion: hemangioma + hemangiosarcoma, dosed 103 weeks, study length 104 weeks). For the same molecule, the TD50 was 722 mg/kg/day (mouse, strain B6C3F1, males, inhaled, site: any site (literature study), lesion: several types, types named in the paper, dosed 103 weeks, study length 104 weeks); 732 mg/kg/day (mouse, strain B6C3F1, males, inhaled, site: nasal cavity, lesion: hemangioma + hemangiosarcoma, dosed 103 weeks, study length 104 weeks); 1470 mg/kg/day (mouse, strain B6C3F1, males, inhaled, site: nasal cavity, lesion: hemangioma, dosed 103 weeks, study length 104 weeks); 1610 mg/kg/day (mouse, strain B6C3F1, males, inhaled, site: nasal cavity, lesion: hemangiosarcoma, dosed 103 weeks, study length 104 weeks); 124 mg/kg/day (rat, strain Fischer 344, females, inhaled, site: any site (literature study), lesion: several types, types named in the paper, dosed 103 weeks, study length 104 weeks); 156 mg/kg/day (rat, strain Fischer 344, females, inhaled, site: cervix uteri + uterus, lesion: endometrial stromal polyp + endometrial stromal sarcoma, dosed 103 weeks, study length 104 weeks). Also, the TD50 (rat, strain Fischer 344, females, inhaled, site: nasal cavity, lesion: papillary adenoma, dosed 103 weeks, study length 104 weeks) was 732 mg/kg/day; the TD50 (rat, strain Fischer 344, males, inhaled, site: adrenal gland, lesion: pheochromocytoma, dosed 101 weeks, study length 104 weeks) was 35.1 mg/kg/day; the TD50 (rat, strain Fischer 344, males, inhaled, site: any site (literature study), lesion: several types, types named in the paper, dosed 103 weeks, study length 104 weeks) was determined as 220 mg/kg/day; the TD50 (rat, strain Fischer 344, males, inhaled, site: liver, lesion: hepatocellular adenoma + hepatocellular carcinoma + neoplastic nodule, dosed 103 weeks, study length 104 weeks) came out at 528 mg/kg/day; the TD50 (rat, strain Fischer 344, males, inhaled, site: liver, lesion: hepatocellular carcinoma, dosed 101 weeks, study length 104 weeks) turned out to be 2960 mg/kg/day; the TD50 (rat, strain Fischer 344, males, inhaled, site: nasal cavity, lesion: papillary adenoma, dosed 103 weeks, study length 104 weeks) was 826 mg/kg/day. For the same molecule, the TD50 was 44.3 mg/kg/day (rat, strain Sprague-Dawley, females, by gavage, site: forestomach, lesion: squamous-cell carcinoma, dosed 109 weeks, study length 150 weeks); 39.5 mg/kg/day (rat, strain Sprague-Dawley, females, by gavage, site: stomach, lesion: several types, types named in the paper, dosed 109 weeks, study length 150 weeks); 150 mg/kg/day (rat, strain Wistar-random, females, inhaled, site: any site (literature study), lesion: malignant tumor, dosed 123 weeks, study length 123 weeks); 25.7 mg/kg/day (rat, strain Wistar-random, females, inhaled, site: any site (literature study), lesion: one or several types, types not named, dosed 123 weeks, study length 123 weeks); 2460 mg/kg/day (rat, strain Wistar-random, females, inhaled, site: liver, lesion: cholangioma, dosed 123 weeks, study length 123 weeks); 813 mg/kg/day (rat, strain Wistar-random, females, inhaled, site: mammary gland, lesion: adenocarcinoma, dosed 123 weeks, study length 123 weeks). Also, the TD50 by setting is: (rat, strain Wistar-random, females, inhaled, site: mammary gland, lesion: fibroadenoma, dosed 123 weeks, study length 123 weeks) 92.6 mg/kg/day; (rat, strain Wistar-random, males, inhaled, site: any site (literature study), lesion: malignant tumor, dosed 124 weeks, study length 124 weeks) 101 mg/kg/day; (rat, strain Wistar-random, males, inhaled, site: any site (literature study), lesion: one or several types, types not named, dosed 124 weeks, study length 124 weeks) 79.3 mg/kg/day; (rat, strain Wistar-random, males, inhaled, site: respiratory system, lesion: carcinoma, dosed 124 weeks, study length 124 weeks) 896 mg/kg/day.

As for `CN(C)c1ccc(C(=N)c2ccc(N(C)C)cc2)cc1`, the TD50 is 67.7 mg/kg/day (mouse, strain CBA, females, in feed, site: liver, lesion: hepatoma, dosed 52 weeks, study length 99 weeks); 77.5 mg/kg/day (mouse, strain CBA, males, in feed, site: liver, lesion: hepatoma, dosed 52 weeks, study length 79 weeks); 94.3 mg/kg/day (mouse, strain albino, females, in feed, site: liver, lesion: hepatoma, dosed 52 weeks, study length 79 weeks); 39.2 mg/kg/day (mouse, strain albino, males, in feed, site: liver, lesion: hepatoma, dosed 52 weeks, study length 84 weeks); 11 mg/kg/day (rat, strain Wilmslow Wistar, males, in feed, site: liver, lesion: hepatoma, dosed 87 weeks, study length 125 weeks).

Consider `O=C1NC(O)CCN1[C@@H]1O[C@H](CO)[C@@H](O)[C@H]1O` (stereo partly drawn), for which the TD50 (rat, strain Fischer 344, males, i.p., site: any site (literature study), lesion: one or several types, types not named, dosed 52 weeks, study length 52 weeks) is 15.7 mg/kg/day.

The values above are taken from PubChem BioAssay AID1745844 (Carcinogenic Potency Database (CPDB), 2022).
